Here are results for four compounds from EP0252422A2, “Pyridazinone derivatives and salts thereof” (MITSUBISHI KASEI CORPORATION, priority 1986, dated 1988).

Experiment [1] concerns guinea pig left atrium. Briefly: isolated guinea pig left atrium, isometric contraction in organ bath. Particulars: Cavia porcellus, read-out: Contractile foece of guinea pig left atrium Increase rate (%); for activation at 30 µg/mL: Dosage 3x10^-5 g/ml; for activation at 10 µg/mL: Dosage 10^-5 g/ml. Here is the method: 2) Method of using isolated guinea pig left atrium
Male guinea pigs weighing 200 - 300 g were killed by hitting their back of the heat and their left atria were immediately isolated. The left atrium was fixed to the bottom of an organ bath filled with 30 ml of Klebs-Henseleit's solution maintained at 35 °C. A mixed gas comprising 95 % of 02 and 5 % of C02 was passed through the Klebs-Henseleit's solution in the organ bath. The auricle of the left atrium was connected to a transducer with a thread to measure the isometric contraction. The atrium was applied with 0.5 g of resting tension. The atrium was electrically driven by square wave of 1 millisecond duration at a voltage of the order of 1.5 times of the threshold voltage and at a rate of twice per second by means of two platinum electrodes. The preparation was stabilized for 30 minutes, then the compound dissolved in solvent was added to the organ bath, and the reaction was determined.

The subject of experiment [2] is anesthetized dog. Briefly: anesthetized dog, cardiac contractility and cardiac output. The note with it: for Co Increasing rate (%): blood flow rate in the aorta as index of cardiac output; for Cont Increasing rate (%): contractile force of the right cardiac ventricle muscle. It is filed as in vivo. Here is the method: 3) Method of using anesthetized dog
Male or female mongrel dogs weighing 8 - 15 kg were used. The dogs were anesthetized with sodium pentobarbital at the dose of 30 mg/kg (intravenous injection) and then applied with artificial respiration. They were thoracotomised at the intercostal portion between forth and fifith costa, and the fifth costa was excised. Then the pericardium was cut to expose the heart. A probe of an electromagnetic flow meter was attached to the aorta to measure the blood flow rate in the aorta, which was used as an approximate index of the cardiac output (CO). A polyethylene cannula was inserted into the left cardiac ventricle to measure the intraventricular pressure, thereby the variation rate of the intraventricular pressure of the left cardiac ventricle (dp/dt) was electrically determined. A strain gauge was attached to the wall of the right cardiac ventricle to measure the contractile force of the right cardiac ventricle muscle (Cont). The systemic blood pressure was measured at the left femoral artery. The heart rate was measured by means- of a cardiotachometer. The compound dissolved in solvent was applied intravenously from the left femoral vein.

Experiment [3] has as its system dog papillary muscle. The experiment is described as follows: cross-circulated preparation of isolated dog papillary muscle. The note with it: Canis lupus familiaris, read-out: Contractile force of dog papillary muscle Increasing rate (%); for activation at 0.03 mg: Dosage 30 µg i.a.; for activation at 0.1 mg: Dosage 100 µg i.a. Here is the method:
1) Method of using cross-circulated preparation of isolated dog papillary muscle
Cross-circulated preparations of isolated dog papillary muscle were prepared according to the method of Endoh & Hashimoto, American J. Physiol., vol. 218, p.1459-1463, 1970, United States. The compound dissolved in solvent was injected to the artery close to the preparation, and the action of the compound on the contractile force of papillary muscle was determined.

With `COc1cc(C2=NNC(=O)CC2)ccc1OCC(=O)N1CCN(Cc2ccc(OC)c(OC)c2OC)CC1` [Compound of Example 1], in experiment [1], the activation at 30 µg/mL stood at 44.8% and the activation at 10 µg/mL was 35.5%. Further, in experiment [2] (Dosage 30 µg/kg i.v.), the “dp/dtmax Increasing rate (%)” value came to 12.9%, the “Co Increasing rate (%)” value was determined as 5.5% and the “Cont Increasing rate (%)” value turned out to be 7.9%. Besides, in experiment [2] (Dosage 100 µg/kg i.v.), the “dp/dtmax Increasing rate (%)” value was 27.1%, the “Co Increasing rate (%)” value was found to be 13.3% and the “Cont Increasing rate (%)” value came out at 21.5%. Besides, in experiment [3], the activation at 0.03 mg worked out at 10% and the activation at 0.1 mg was determined as 20.1%.

As for `COc1ccc(CN2CCN(C(=O)COc3ccc(C4=NNC(=O)CC4)cc3)CC2)c(OC)c1OC` [Compound of Example 2], in experiment [1], the activation at 30 µg/mL worked out at 22.6% and the activation at 10 µg/mL came out at 6.4%. Besides, in experiment [2] (Dosage 30 µg/kg i.v.), the “dp/dtmax Increasing rate (%)” value is listed as 12.2%, the “Co Increasing rate (%)” value worked out at 4.8% and the “Cont Increasing rate (%)” value stood at 10.1%. Also, in experiment [2] (Dosage 100 µg/kg i.v.), the “dp/dtmax Increasing rate (%)” value was 34.3%, the “Co Increasing rate (%)” value came to 16.3% and the “Cont Increasing rate (%)” value stood at 22.8%. In addition, in experiment [3], the activation at 0.03 mg was found to be 11.4% and the activation at 0.1 mg amounted to 12.5%.

For the compound `COc1ccc(CN2CCN(C(=O)COc3ccc(C4=NNC(=O)CC4)cc3)CC2)cc1` [Compound of Example 3], in experiment [1], the activation at 30 µg/mL stood at 28% and the activation at 10 µg/mL was found to be 32%. In experiment [2] (Dosage 30 µg/kg i.v.), the “dp/dtmax Increasing rate (%)” value is 18.0%, the “Co Increasing rate (%)” value is listed as 17.4% and the “Cont Increasing rate (%)” value was 12.2%. Also, in experiment [2] (Dosage 100 µg/kg i.v.), the “dp/dtmax Increasing rate (%)” value is on record as 49.8%, the “Co Increasing rate (%)” value came out at 28.9% and the “Cont Increasing rate (%)” value was 29.1%. In addition, in experiment [3], the activation at 0.03 mg is 13.2% and the activation at 0.1 mg was determined as 17%.

For the compound `COc1ccc(N2CCN(C(=O)C(C)Oc3ccc(C4=NNC(=O)CC4)cc3OC)CC2)cc1` (stereo not shown) [Compound of Example 4], in experiment [1], the activation at 30 µg/mL is 35.9% and the activation at 10 µg/mL stood at 23.8%. Further, in experiment [2] (Dosage 30 µg/kg i.v.), the “dp/dtmax Increasing rate (%)” value was 9.9%, the “Co Increasing rate (%)” value is 8.7% and the “Cont Increasing rate (%)” value is given as 3.6%. Also, in experiment [2] (Dosage 100 µg/kg i.v.), the “dp/dtmax Increasing rate (%)” value stood at 19.2%, the “Co Increasing rate (%)” value was 19.6% and the “Cont Increasing rate (%)” value was found to be 10.0%. In addition, in experiment [3], the activation at 0.03 mg was 7.5% and the activation at 0.1 mg turned out to be 24.8%.
